Data: ChEMBL document CHEMBL5233262, “Anti-inflammatory activity of naturally occuring diarylheptanoids - A review” (Bioorg Med Chem, 2021)
Converted amounts (≈) assume the structure as drawn.

Tests used:
[1] = test system: Hep 3B2; assay: Antiinflammatory activity in human Hep3B cells assessed as inhibition of IL-6 stimulated ICAM-1 mRNA expression at 30 uM preincubated for 60 mins followed by IL-6 stimulation and measured after 20 mins by RT-PCR analysis; format: functional; conditions: 1.333 h, time 80 min
[2] = test system: Hep 3B2; assay: Antiinflammatory activity in human Hep3B cells assessed as inhibition of IL-6 stimulated CRP mRNA expression at 30 uM preincubated for 60 mins followed by IL-6 stimulation and measured after 20 mins by RT-PCR analysis; format: functional; conditions: 1.333 h, time 80 min
[3] = test system: Hep 3B2; assay: Antiinflammatory activity in human Hep3B cells assessed as inhibition of IL-6 stimulated IL-1beta mRNA expression at 30 uM preincubated for 60 mins followed by IL-6 stimulation and measured after 20 mins by RT-PCR analysis; format: functional; conditions: 1.333 h, time 80 min
[4] = test system: Hep 3B2; assay: Antiinflammatory activity in human Hep3B cells assessed as inhibition of IL-6 stimulated SOCS3 mRNA expression at 30 uM preincubated for 60 mins followed by IL-6 stimulation and measured after 20 mins by RT-PCR analysis; format: functional; conditions: 1.333 h, time 80 min
[5] = test system: HUVEC; assay: Antiinflammatory activity in human HUVEC cells assessed as TNFalpha induced VCAM-1 expression at 5 to 20 uM preincubated for 1 hrs followed by TNFalpha stimulation and measured after 6 hrs by fluorescence analysis; format: functional; conditions: dose 5-20 µM, time 7 hrs
[6] = test system: HUVEC; assay: Antiinflammatory activity in human HUVEC cells assessed as LPS induced VCAM-1 expression at 5 to 20 uM preincubated for 1 hrs followed by LPS stimulation and measured after 6 hrs by fluorescence analysis; format: functional; conditions: dose 5-20 µM, time 7 hrs
[7] = test system: HUVEC; assay: Antiinflammatory activity in human HUVEC cells assessed as TNFalpha induced NF-kappaB transactivation at 5 to 20 uM preincubated for 1 hrs followed by TNFalpha stimulation and measured after 6 hrs by fluorescence analysis; format: functional; conditions: dose 5-20 µM, time 7 hrs
[8] = test system: HUVEC; assay: Antiinflammatory activity in human HUVEC cells assessed as LPS induced NF-kappaB transactivation at 5 to 20 uM preincubated for 1 hrs followed by LPS stimulation and measured after 6 hrs by fluorescence analysis; format: functional; conditions: dose 5-20 µM, time 7 hrs
[9] = test system: RAW264.7; assay: Antiinflammatory activity in mouse RAW264.7 cells assessed as inhibition of LPS-induced NO production at 3 to 100 uM preincubated for 2 hrs followed by LPS stimulation and measured after 24 hrs by Griess method; format: functional; conditions: dose 3-100 µM, time 26 hrs
[10] = test system: RAW264.7; assay: Antiinflammatory activity in mouse RAW264.7 cells assessed as inhibition of LPS-induced TNFalpha production at 3 to 100 uM preincubated for 2 hrs followed by LPS stimulation and measured after 24 hrs by ELISA; format: functional; conditions: dose 3-100 µM, time 26 hrs
[11] = test system: RAW264.7; assay: Antiinflammatory activity in mouse RAW264.7 cells assessed as inhibition of LPS-induced IL-6 production at 3 to 100 uM preincubated for 2 hrs followed by LPS stimulation and measured after 24 hrs by ELISA; format: functional; conditions: dose 3-100 µM, time 26 hrs
[12] = test system: Mus musculus; assay: Protective activity in Pde6brd10 mouse model of Retinitis pigmentosa assessed as decrease in NO production in retina at 5 mg/kg,ip for 14 days by Griess assay; format: functional; set-up: scale not given: the % may be the effect or the level left; conditions: time 14 day
[13] = test system: Mus musculus; assay: Protective activity in Pde6brd10 mouse model of Retinitis pigmentosa assessed as decrease in IL-1beta production in retina at 5 mg/kg,ip for 14 days by ELISA; format: functional; set-up: scale not given: the % may be the effect or the level left; conditions: time 14 day
[14] = test system: Mus musculus; assay: Protective activity in Pde6brd10 mouse model of Retinitis pigmentosa assessed as decrease in IL-6 production in retina at 5 mg/kg,ip for 14 days by ELISA; format: functional; set-up: scale not given: the % may be the effect or the level left; conditions: time 14 day
[15] = test system: Mus musculus; assay: Protective activity in Pde6brd10 mouse model of Retinitis pigmentosa assessed as decrease in IL-12 production in retina at 5 mg/kg,ip for 14 days by ELISA; format: functional; set-up: scale not given: the % may be the effect or the level left; conditions: time 14 day
[16] = test system: Mus musculus; assay: Protective activity in Pde6brd10 mouse model of Retinitis pigmentosa assessed as decrease in TNFalpha production in retina at 5 mg/kg,ip for 14 days by ELISA; format: functional; set-up: scale not given: the % may be the effect or the level left; conditions: time 14 day
[17] = test system: Mus musculus; assay: Protective activity in Pde6brd10 mouse model of Retinitis pigmentosa assessed as decrease in IL-1beta gene expression level in retina at 5 mg/kg,ip for 14 days by qRT-PCR analysis; format: functional; set-up: scale not given: the % may be the effect or the level left; conditions: time 14 day
[18] = test system: Mus musculus; assay: Protective activity in Pde6brd10 mouse model of Retinitis pigmentosa assessed as decrease in IL-6 gene expression level in retina at 5 mg/kg,ip for 14 days by qRT-PCR analysis; format: functional; set-up: scale not given: the % may be the effect or the level left; conditions: time 14 day
[19] = test system: Mus musculus; assay: Protective activity in Pde6brd10 mouse model of Retinitis pigmentosa assessed as decrease in IL-12 gene expression level in retina at 5 mg/kg,ip for 14 days by qRT-PCR analysis; format: functional; set-up: scale not given: the % may be the effect or the level left; conditions: time 14 day
[20] = test system: Mus musculus; assay: Protective activity in Pde6brd10 mouse model of Retinitis pigmentosa assessed as decrease in TNF-alpha gene expression level in retina at 5 mg/kg,ip for 14 days by qRT-PCR analysis; format: functional; set-up: scale not given: the % may be the effect or the level left; conditions: time 14 day
[21] = test system: Mus musculus; assay: Protective activity in Pde6brd10 mouse model of Retinitis pigmentosa assessed as decrease in NF-kappaB expression level in retina at 5 mg/kg,ip for 14 days by Western blot analysis; format: functional; set-up: scale not given: the % may be the effect or the level left; conditions: time 14 day
[22] = test system: RAW264.7; assay: Antiinflammatory activity in mouse RAW264.7 cells assessed as inhibition of LPS-induced NO production; format: functional, cell-based
[23] = test system: RAW264.7; assay: Antiinflammatory activity in mouse RAW264.7 cells assessed as inhibition of LPS-induced TNFalpha production; format: functional, cell-based
[24] = Antiinflammatory activity in C57BL/6 mouse BMDC cells assessed as inhibition of imiquimod-induced IL-1beta mRNA expression level at 10 uM and measured after 12 hrs by qpCR analysis; format: functional; conditions: C57BL/6, BMDC
[25] = Antiinflammatory activity in C57BL/6 mouse BMDC cells assessed as inhibition of imiquimod-induced IL-6 mRNA expression level at 10 uM and measured after 12 hrs by qpCR analysis; format: functional; conditions: C57BL/6, BMDC
[26] = Antiinflammatory activity in C57BL/6 mouse BMDC cells assessed as inhibition of imiquimod-induced IL-12 mRNA expression level at 10 uM and measured after 12 hrs by qpCR analysis; format: functional; conditions: C57BL/6, BMDC
[27] = Antiinflammatory activity in C57BL/6 mouse BMDC cells assessed as inhibition of imiquimod-induced IL-1beta expression level at 10 uM and measured after 12 hrs by western blot analysis; format: functional; conditions: C57BL/6, BMDC
[28] = Antiinflammatory activity in C57BL/6 mouse BMDC cells assessed as inhibition of imiquimod-induced IL-6 expression level at 10 uM and measured after 12 hrs by western blot analysis; format: functional; conditions: C57BL/6, BMDC
[29] = Antiinflammatory activity in C57BL/6 mouse BMDC cells assessed as inhibition of imiquimod-induced IL-12 expression level at 10 uM and measured after 12 hrs by western blot analysis; format: functional; conditions: C57BL/6, BMDC
[30] = Antiinflammatory activity in human HAP1 cells assessed as inhibition of LPS-induced p38 MAPK activation at 5 uM; format: functional
[31] = test system: RAW264.7; assay: Antiinflammatory activity in mouse RAW264.7 cells assessed as inhibition of LPS-induced NO production for 24 hrs by colorimetric analysis; format: functional, cell-based; conditions: RAW264.7, 24 h
[32] = Anti-osteoclastogenic activity in human BMDC assessed in inhibition of RANKL mediated osteoclast differentiation; format: functional, cell-based
[33] = Antiinflammatory activity in human HAP1 cells assessed as inhibition of LPS-induced NO production at 5 uM; format: functional
[34] = Antiinflammatory activity in human HAP1 cells assessed as inhibition of LPS-induced iNOS expression at 5 uM; format: functional
[35] = Antiinflammatory activity in human HAP1 cells assessed as inhibition of LPS-induced NF-kappaB activation at 5 uM; format: functional
[36] = Antiinflammatory activity in human HAP1 cells assessed as inhibition of LPS-induced ROS production at 5 uM; format: functional

`COc1ccc(/C=C/C(C[C@H](O)CCc2ccc(OC)c(OC)c2)OC)cc1OC` (stereo partly specified) showed an inhibition at 30 µM [1] of 76%, an inhibition at 30 µM [2] of 91% and an inhibition at 30 µM [3] of 91%. It also gave an inhibition at 30 µM [4] of 91%.

Work on `COc1cc(CC/C=C/C(=O)CCc2ccc(O)c(OC)c2)ccc1O` yielded an Activity [5] of 26%, an Activity [6] of 17% and an Activity [7] of 7%. The Activity [8] was 8%.

With `COc1cc2ccc1Oc1cc(ccc1O)CC[C@H](O[C@@H]1O[C@H](CO)[C@@H](O)[C@H](O)[C@H]1O)CC(=O)CC2` the “inhibition (INH)” value [9] was 32.7%, the “inhibition (INH)” value [10] was 44.1% and the “inhibition (INH)” value [11] was 29.2%.

`COc1c2cc(c(OC)c1O)-c1cc(ccc1O)CC[C@@H](O)CCCC2` showed an Activity [12] of 21%, an Activity [13] of 22% and an Activity [14] of 12%. For the same molecule, the Activity [15] was 12%, the Activity [16] was 16% and the Activity [17] was 41%. The Activity [18] was 31%, the Activity [19] was 38% and the Activity [20] was 49%. For the same molecule, the Activity [21] was 50%.

For `COc1cc([C@@H](O)[C@@H](O)[C@@H](O)C[C@H](O)CCc2ccc(O)cc2)ccc1O`, the IC50 [22] was 32.6 µg/mL (≈ 86.1 µM) and the IC50 [23] was greater than 100000 nM.

`O=C(/C=C/C=C/c1ccc(O)cc1)CCc1ccc(O)cc1` showed an inhibition at 10 µM [24] of 86%, an inhibition at 10 µM [25] of 61% and an inhibition at 10 µM [26] of 69%. The inhibition at 10 µM [27] was 56%, the inhibition at 10 µM [28] was 58% and the inhibition at 10 µM [29] was 31%.

With `Oc1ccc(CC[C@@H](O)CC/C=C/c2ccccc2)cc1O` the inhibition at 5 µM [30] was 44%, the IC50 [31] was 420 nM and the IC50 [32] was 325 nM. It also gave an inhibition at 5 µM [33] of 91%, an inhibition at 5 µM [34] of 85% and an inhibition at 5 µM [35] of 52%. The inhibition at 5 µM [36] was 90%.
